According to patent publication US8809280B2, “Therapeutic peptides” (Lytix Biopharma AS, priority 2009, dated 2014):
In brackets after ≈: the same amount, converted by molar mass. Several values for one entry are separate records, joined by “and”; a condition that tells them apart may be missing. Equal values may be shown once. Read-outs that look alike come from different tables or passages of the source. Starred links: 1 amine or outer side, 2 acyl side, 3 side chain; linkers in the order of their positions; H or OH if unused. Non-standard residues stand in square brackets, D forms with d. Residues, ends and D or L forms follow the SMILES beside them. X1 = Cc1cc(C)cc(CC(CN[*:1])(Cc2cc(C)cc(C)c2)C(=O)[*:2])c1; X4 = O=C(C(CN[*:1])(Cc1ccc(F)cc1)Cc1ccc(F)cc1)[*:2]

Key:
Type in all cases: cell-based
[1] = test system: Staphylococcus aureus (ATTC 25923); assay: microbe, parasite or virus in culture
Procedure, shortened: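 Di-TFA salts tested in duplicate at 0.5–200 μg/ml against exponential-phase bacteria at 2×10^6 cfu/ml grown in 2% peptone water. Growth judged by well turbidity, with no-peptide and gentamicin controls.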

A20 = assay: cells; conditions: for IC50: Mus musculus, A20, Example 2, read-out: Anticancer potency (IC50) A20; for Anti-Cancer Selectivity MRC-5/A20: ratio of MRC-5 to A20 values; for Anti-Cancer Selectivity RBC/A20: ratio of RBC EC50 to A20 IC50
Procedure: Cancer Cell Lines A20 or MethA Anticancer assays: 500 μg/ml

[2] = test system: methicillin resistant Staphylococcus epidermidis (ATCC 27626); assay: microbe, parasite or virus in culture
Procedure, shortened: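 Exponentially grown bacteria (2% peptone water) at 2×10^6 cfu/ml exposed in duplicate to di-TFA salts at 0.5–200 μg/ml. Growth or no growth judged by well turbidity; no-peptide and gentamicin controls included.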

[3] = test system: Escherichia coli (ATTC 25922); assay: microbe, parasite or virus in culture
Procedure, shortened: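 Broth dilution in 2% Bacto Peptone water, inoculum 2×10^6 cfu/ml of exponential-phase bacteria; compounds (di-TFA salts) tested in duplicate at 200 down to 0.5 μg/ml. Growth judged by well turbidity, with no-peptide negative and gentamicin positive controls.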

MRC-5 = assay: Toxicity assay MRC-5; conditions: highest concentration tested 500 μg/ml; for IC50: Homo sapiens, MRC5, Example 2; for Toxicity MRC-5: Example 2
Procedure: Cells for Toxicity Studies Used MRC-5 and human RBC MRC-5 assay: 500 μg/ml

human red blood cells = assay: cells
Procedure, shortened: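 Washed heparinized RBCs, diluted to 10% hematocrit then to 1% v/v final, incubated with compounds in PBS (1–1000 μg/mL) for 1 h at 37 °C with agitation. Hemoglobin release read at 405 nm against PBS (0%) and 0.1% Triton X-100 (100%); value reported is concentration giving 50% hemolysis.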

[4] = test system: methicillin resistant Staphylococcus aureus (ATCC 33591); assay: microbe, parasite or virus in culture
Procedure, shortened: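 Di-TFA salts tested in duplicate at 200 down to 0.5 μg/ml against exponentially grown bacteria at 2×10^6 cfu/ml. Growth judged by well turbidity, with no-peptide and gentamicin controls.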

[5] = test system: Pseudomonas aeruginosa (ATCC 27853); assay: microbe, parasite or virus in culture; conditions: ATCC 27853
Procedure: Each compound was tested in duplicates at 200, 100, 50, 35, 15, 10, 5, 2.5, 1, 0.5 μg/ml. All tested compounds were di-trifluoroacetic acid salts.

[6] = Example 2, values separated by / are repeat tests
[7] = Staphylococcus aureus, Example 2, values separated by / are repeat tests, read-out: Antimicrobial potency (MIC) S. aureus
[8] = Example 2, highest concentration tested 500 μg/ml, * low solubility in the test media (Table 2)
[9] = highest concentration tested 500 μg/ml, * low solubility in the test media (Table 2)
[10] = Staphylococcus epidermidis, ATCC 27626 / MRSE, Example 2, values separated by / are repeat tests, read-out: Antimicrobial potency (MIC) MRSE
[11] = Escherichia coli, Example 2, values separated by / are repeat tests, read-out: Antimicrobial potency (MIC) E. coli
[12] = Homo sapiens, Erythrocyte, Example 2, highest concentration tested 1000 μg/ml, * low solubility in the test media, read-out: Toxicity RBC (EC50)
[13] = Staphylococcus aureus, ATCC 33591 / MRSA, Example 2, values separated by / are repeat tests, read-out: Antimicrobial potency (MIC) MRSA

Compound	MIC [1, 7]	IC50 (A20; [9])	Anti-Cancer Selectivity MRC-5/A20 (A20)	Anti-Cancer Selectivity RBC/A20 (A20)	MIC [2, 10]	MIC [3, 11]	IC50 (MRC-5)	EC50 (human red blood cells; [12])	MIC [4, 13]	Toxicity MRC-5 (MRC-5)	also measured
NCCNC(=O)C(CN)(CCC1CCCCC1)CCC1CCCCC1 [Compound 3, N-(2-aminoethyl)-2-(aminomethyl)-4-cyclohexyl-2-(2-cyclohexylethyl)butanamide]	7.5 µg/mL	< 3.35 µg/mL	(<5.9)	36.5	2.5 µg/mL	15 µg/mL	< 10 µg/mL	62 µg/mL	–	–	Antimicrobial potency (MIC) S. aureus [1, 6]: 10 µg/mL; Anticancer potency (IC50) A20 (A20; [8]): 1.7 µg/mL; Antimicrobial potency (MIC) MRSE [2, 6]: 5 µg/mL; Antimicrobial potency (MIC) E. coli [3, 6]: 10 µg/mL
NCCNC(=O)C(CN)(Cc1ccccc1)Cc1ccccc1 [Compound 4]	> 200 µg/mL	68.6 µg/mL (≈ 220 µM)	3.8	–	> 200 µg/mL	> 200 µg/mL	261 µg/mL (≈ 838 µM)	> 1000 µg/mL	> 200 µg/mL	–	–
CN(C)CCN1CCN(C(=O)C(CN)(Cc2ccc(C(C)(C)C)cc2)Cc2ccc(C(C)(C)C)cc2)CC1 [Compound 4d]	–	–	–	–	–	–	–	–	–	–	Therapeutic index P. aeruginosa [5]: 1.3; MIC ([5]; read-out: MIC P. aeruginosa): 255 µM (≈ 133 µg/mL); MBC S. aureus ([1]; ATTC 25923): >307 µM; Therapeutic index S. aureus ([1]; ATTC 25923): 26; MIC ([1]; ATTC 25923, read-out: MIC S. aureus): 13 µM; MIC S. aureus ([1]; Example 1, ATTC 25923, di TFA salts, highest concentration tested 200 μg/ml): — (The notation “—”denotes no detectable activity (MIC or EC50) within the concentration range tested.); MBC MRSE ([2]; ATCC 27626): >307 µM; Therapeutic index MRSE ([2]; ATCC 27626): 26; MIC ([2]; ATCC 27626, read-out: MIC MRSE): 13 µM; MIC MRSE ([2]; Example 1, ATCC 27626, di TFA salts, highest concentration tested 200 μg/ml): — (The notation “—”denotes no detectable activity (MIC or EC50) within the concentration range tested.); MBC E. coli ([3]; ATTC 25922): >307 µM; Therapeutic index E. coli ([3]; ATTC 25922): 26; MIC ([3]; ATTC 25922, read-out: MIC E. coli): 13 µM; MIC E. coli ([3]; Example 1, ATTC 25922, di TFA salts, highest concentration tested 200 μg/ml): — (The notation “—”denotes no detectable activity (MIC or EC50) within the concentration range tested.); EC50 (human red blood cells; red cells of human): 337 µM; MBC MRSA ([4]; ATCC 33591): >307 µM; Therapeutic index MRSA ([4]; ATCC 33591): 26; MIC ([4]; ATCC 33591, read-out: MIC MTRSA): 13 µM; MIC MRSA ([4]; Example 1, ATCC 33591, di TFA salts, highest concentration tested 200 μg/ml): — (The notation “—”denotes no detectable activity (MIC or EC50) within the concentration range tested.)
NCCNC(=O)C(CN)(CCCc1ccccc1)CCCc1ccccc1 [Compound 6, N-(2-aminoethyl)-2-(aminomethyl)-5-phenyl-2-(3-phenylpropyl)pentanamide]	35 µg/mL	8.3 µg/mL (≈ 22.6 µM)	4.2	98.8	15 µg/mL	200 µg/mL	35 µg/mL (≈ 95.2 µM)	820 µg/mL	35 µg/mL	–	Antimicrobial potency (MIC) S. aureus [1, 6]: 50 µg/mL
NCCNC(=O)C(CN)(Cc1ccc(C(F)(F)F)cc1)Cc1ccc(C(F)(F)F)cc1 [Compound 9, 3-amino-N-(2-aminoethyl)-2,2-bis(4-(trifluoromethyl)benzyl)propanamide]	10 µg/mL	–	10-12	287	10 µg/mL	35 µg/mL	< 10 µg/mL	287 µg/mL	5 µg/mL	12 µg/mL	–
CC(C)c1ccc(CC(CN)(Cc2ccc(C(C)C)cc2)C(=O)NCCN)cc1 [Compound 10, 3-amino-N-(2-aminoethyl)-2,2-bis(4-isopropylbenzyl)propanamide]	5 µg/mL	–	(<4.8)	33.6	5 µg/mL	–	< 6.67 µg/mL	47 µg/mL	5 µg/mL	–	Antimicrobial potency (MIC) S. aureus [1, 6]: 10 µg/mL; Antimicrobial potency (MIC) MRSA [4, 6]: 10 µg/mL
CC(C)(C)c1ccc(CC(CN)(Cc2ccc(C(C)(C)C)cc2)C(=O)NCCN)cc1 [Compound 11, 3-amino-N-(2-aminoethyl)-2,2-bis(4-tert-butylbenzyl)propanamide]	2.5 µg/mL	–	3.6	10.9	2.5 µg/mL	5 µg/mL	4 µg/mL (≈ 9.44 µM)	12 µg/mL	2.5 µg/mL	–	–
Cc1cc(C)cc(CC(CN)(Cc2cc(C)cc(C)c2)C(=O)NCCN)c1 [Compound 12, 3-amino-N-(2-aminoethyl)-2,2-bis(3,5-dimethylbenzyl)propanamide]	35 µg/mL	< 5 µg/mL	(>2 )	–	5 µg/mL	50 µg/mL	10 µg/mL (≈ 27.2 µM)	–	35 µg/mL	–	Anticancer potency (IC50) A20 (A20; [8]): < 10 µg/mL; Antimicrobial potency (MIC) MRSE [2, 6]: 10 µg/mL; Antimicrobial potency (MIC) E. coli [3, 6]: 100 µg/mL
NCCCC[C@@H](N)C(=O)N[C@H](CCCCN)C(=O)N[C@H](Cc1c[nH]c2ccccc12)C(=O)NCC(Cc1ccc(F)cc1)(Cc1ccc(F)cc1)C(=O)N[C@@H](Cc1c[nH]c2ccccc12)C(=O)N[C@@H](CCCCN)C(=O)N[C@@H](CCCCN)C(N)=O [Compound 19, (R)-N-((2R,9S,12S,15S)-9-((1H-indol-3-yl)methyl)-19-amino-12-(4-aminobutyl)-15-carbamoyl-6,6-bis(4-fluorobenzyl)-1-(1H-indol-3-yl)-3,7,10,13-tetraoxo-4,8,11,14-tetraazanonadecan-2-yl)-6-amino-2-((R)-2,6-diaminohexanamido)hexanamide] (H-[dK][dK][dW][X4]WKK-NH2)	–	–	(>2.5)	–	–	–	–	–	–	>500 µg/mL	Anticancer potency (IC50) A20 (A20): 197 µg/mL
NCCCC[C@@H](N)C(=O)N[C@H](CCCCN)C(=O)N[C@H](Cc1c[nH]c2ccccc12)C(=O)NCC(Cc1ccc(C(F)(F)F)cc1)(Cc1ccc(C(F)(F)F)cc1)C(=O)N[C@@H](Cc1c[nH]c2ccccc12)C(=O)N[C@@H](CCCCN)C(=O)N[C@@H](CCCCN)C(N)=O [Compound 20, (R)-N-((2R,9S,12S,15S)-9-((1H-indol-3-yl)methyl)-19-amino-12-(4-aminobutyl)-15-carbamoyl-1-(1H-indol-3-yl)-3,7,10,13-tetraoxo-6,6-bis(4-(trifluoromethyl)benzyl)-4,8,11,14-tetraazanonadecan-2-yl)-6-amino-2-((R)-2,6-diaminohexanamido)hexanamide]	–	–	7.0	–	–	–	–	–	–	260 µg/mL	Anticancer potency (IC50) A20 (A20): 37 µg/mL
CC(C)(C)c1ccc(CC(CNC(=O)[C@@H](Cc2c[nH]c3ccccc23)NC(=O)[C@@H](CCCCN)NC(=O)[C@H](N)CCCCN)(Cc2ccc(C(C)(C)C)cc2)C(=O)N[C@@H](Cc2c[nH]c3ccccc23)C(=O)N[C@@H](CCCCN)C(=O)N[C@@H](CCCCN)C(N)=O)cc1 [Compound 21, (R)-N-((2R,9S,12S,15S)-9-((1H-indol-3-yl)methyl)-19-amino-12-(4-aminobutyl)-6,6-bis(4-tert-butylbenzyl)-15-carbamoyl-1-(1H-indol-3-yl)-3,7,10,13-tetraoxo-4,8,11,14-tetraazanonadecan-2-yl)-6-amino-2-((R)-2,6-diaminohexanamido)hexanamide]	–	–	2.9 and 3.2	–	–	–	–	–	–	42 µg/mL and 55.2 µg/mL	–
Cc1cc(C)cc(CC(CNC(=O)[C@@H](Cc2c[nH]c3ccccc23)NC(=O)[C@@H](CCCCN)NC(=O)[C@H](N)CCCCN)(Cc2cc(C)cc(C)c2)C(=O)N[C@@H](Cc2c[nH]c3ccccc23)C(=O)N[C@@H](CCCCN)C(=O)N[C@@H](CCCCN)C(N)=O)c1 [Compound 22, (R)-N-((2R,9S,12S,15S)-9-((1H-indol-3-yl)methyl)-19-amino-12-(4-aminobutyl)-15-carbamoyl-6,6-bis(3,5-dimethylbenzyl)-1-(1H-indol-3-yl)-3,7,10,13-tetraoxo-4,8,11,14-tetraazanonadecan-2-yl)-6-amino-2-((R)-2,6-diaminohexanamido)hexanamide] (H-[dK][dK][dW][X1]WKK-NH2)	–	–	7.4 and 5.1	–	–	–	–	–	–	237 µg/mL and 205 µg/mL	–
